Broadly, the IC50 is the concentration that gives 50% inhibition. A low value points to greater potency.

SMILES strings stand for the structures.

The record followed here is patent publication US20230348442A1, “GALECTIN-3 INHIBITING 2-HYDROXYCYCLOALKANE-1-CARBAMOYL DERIVATIVES” (Idorsia Pharmaceuticals Ltd, priority 2020, published 2023).

Chain of human Gal-3 (hGal-3) (P17931 whole entry): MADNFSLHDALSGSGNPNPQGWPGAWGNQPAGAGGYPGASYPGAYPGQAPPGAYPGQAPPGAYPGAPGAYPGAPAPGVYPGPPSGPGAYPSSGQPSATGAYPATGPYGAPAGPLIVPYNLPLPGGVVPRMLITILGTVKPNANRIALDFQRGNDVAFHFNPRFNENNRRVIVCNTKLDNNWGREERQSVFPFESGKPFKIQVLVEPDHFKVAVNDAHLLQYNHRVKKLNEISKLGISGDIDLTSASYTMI

This assay concerns the target human Gal-3 (hGal-3) (Homo sapiens (Human), UniProt P17931). The assay can be described thus: competitive binding assay: binding of biotinylated hGal-3 to microplate-adsorbed asialofetuin (ASF), spectrophotometric. Conditions: Activity on hGal-3; mean values of several measurements. A digest of the protocol: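 For hGal-1, a variant with all six cysteines replaced by serines is preferred. Either galectin, biotinylated at 300-1000 ng/mL, competes with compound for microplate-bound ASF over 3 h at 4° C; peroxidase/ABTS detection gives IC50, averaged.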
Consider `CO[C@@H]1[C@@H](n2cc(-c3cc(F)c(Cl)c(F)c3)nn2)[C@@H](O)[C@@H](CO)O[C@H]1C(=O)N(c1cc(Br)cc(C#N)c1)[C@@H]1CC[C@H]1O` [Example 2.5.5R, (2R,3R,4S,5R,6R)-N-(3-bromo-5-cyanophenyl)-4-(4-(4-chloro-3,5-difluorophenyl)-1H-1,2,3-triazol-1-yl)-5-hydroxy-N-((1R,2R)-2-hydroxycyclobutyl)-6-(hydroxymethyl)-3-methoxytetrahydro-2H-pyran-2-carboxamide], for which the IC50 was determined as 184 nM.

For `CO[C@@H]1[C@@H](n2cc(-c3cc(F)c(Br)c(F)c3)nn2)[C@@H](O)[C@@H](CO)O[C@H]1C(=O)N(c1cc(Cl)cc(C#N)c1)[C@H]1CC[C@@H]1O` [Example 2.6.4, (2R,3R,4S,5R,6R)-4-(4-(4-bromo-3,5-difluorophenyl)-1H-1,2,3-triazol-1-yl)-N-(3-chloro-5-cyanophenyl)-5-hydroxy-N-((1S,2S)-2-hydroxycyclobutyl)-6-(hydroxymethyl)-3-methoxytetrahydro-2H-pyran-2-carboxamide], the IC50 was determined as 80 nM.

Compound `CO[C@@H]1[C@@H](n2cc(-c3cc(F)c(Br)c(F)c3)nn2)[C@@H](O)[C@@H](CO)O[C@H]1C(=O)N(c1cc(Cl)cc(C#N)c1)[C@@H]1CC[C@H]1O` [Example 2.6.4R, (2R,3R,4S,5R,6R)-4-(4-(4-bromo-3,5-difluorophenyl)-1H-1,2,3-triazol-1-yl)-N-(3-chloro-5-cyanophenyl)-5-hydroxy-N-((1R,2R)-2-hydroxycyclobutyl)-6-(hydroxymethyl)-3-methoxytetrahydro-2H-pyran-2-carboxamide] showed an IC50 of 174 nM.

In turn, `CO[C@@H]1[C@@H](n2cc(-c3cc(F)c(Br)c(F)c3)nn2)[C@@H](O)[C@@H](CO)O[C@H]1C(=O)N(c1cc(Br)cc(C#N)c1)[C@H]1CC[C@@H]1O` [Example 2.6.5, (2R,3R,4S,5R,6R)-4-(4-(4-bromo-3,5-difluorophenyl)-1H-1,2,3-triazol-1-yl)-N-(3-bromo-5-cyanophenyl)-5-hydroxy-N-((1S,2S)-2-hydroxycyclobutyl)-6-(hydroxymethyl)-3-methoxytetrahydro-2H-pyran-2-carboxamide] yielded an IC50 of 70.9 nM.

Regarding `CO[C@@H]1[C@@H](n2cc(-c3cc(F)c(Br)c(F)c3)nn2)[C@@H](O)[C@@H](CO)O[C@H]1C(=O)N(c1cc(Br)cc(C#N)c1)[C@@H]1CC[C@H]1O` [Example 2.6.5R, (2R,3R,4S,5R,6R)-4-(4-(4-bromo-3,5-difluorophenyl)-1H-1,2,3-triazol-1-yl)-N-(3-bromo-5-cyanophenyl)-5-hydroxy-N-((1R,2R)-2-hydroxycyclobutyl)-6-(hydroxymethyl)-3-methoxytetrahydro-2H-pyran-2-carboxamide], the IC50 was 303 nM.

`CO[C@@H]1[C@@H](n2cc(-c3cc(F)c(Br)c(F)c3)nn2)[C@@H](O)[C@@H](CO)O[C@H]1C(=O)N(c1cc(F)cc(C#N)c1)[C@H]1CC[C@@H]1O` [Example 2.6.7, (2R,3R,4S,5R,6R)-4-(4-(4-bromo-3,5-difluorophenyl)-1H-1,2,3-triazol-1-yl)-N-(3-cyano-5-fluorophenyl)-5-hydroxy-N-((1S,2S)-2-hydroxycyclobutyl)-6-(hydroxymethyl)-3-methoxytetrahydro-2H-pyran-2-carboxamide] gave an IC50 of 183 nM.

Consider `CO[C@@H]1[C@@H](n2cc(-c3cc(F)c(Br)c(F)c3)nn2)[C@@H](O)[C@@H](CO)O[C@H]1C(=O)N(c1cc(F)cc(C#N)c1)[C@@H]1CC[C@H]1O` [Example 2.6.7R, (2R,3R,4S,5R,6R)-4-(4-(4-bromo-3,5-difluorophenyl)-1H-1,2,3-triazol-1-yl)-N-(3-cyano-5-fluorophenyl)-5-hydroxy-N-((1R,2R)-2-hydroxycyclobutyl)-6-(hydroxymethyl)-3-methoxytetrahydro-2H-pyran-2-carboxamide], for which the IC50 was determined as 359 nM.

As for `CO[C@@H]1[C@@H](n2cc(-c3cc(F)c(F)c(Cl)c3)nn2)[C@@H](O)[C@@H](CO)O[C@H]1C(=O)N(c1cc(Cl)cc(C#N)c1)[C@H]1CC[C@@H]1O` [Example 2.7.4, (2R,3R,4S,5R,6R)-4-(4-(3-chloro-4,5-difluorophenyl)-1H-1,2,3-triazol-1-yl)-N-(3-chloro-5-cyanophenyl)-5-hydroxy-N-((1S,2S)-2-hydroxycyclobutyl)-6-(hydroxymethyl)-3-methoxytetrahydro-2H-pyran-2-carboxamide], the IC50 worked out at 78.6 nM.

Turning to `CO[C@@H]1[C@@H](n2cc(-c3cc(F)c(F)c(Cl)c3)nn2)[C@@H](O)[C@@H](CO)O[C@H]1C(=O)N(c1cc(Cl)cc(C#N)c1)[C@@H]1CC[C@H]1O` [Example 2.7.4R, (2R,3R,4S,5R,6R)-4-(4-(3-chloro-4,5-difluorophenyl)-1H-1,2,3-triazol-1-yl)-N-(3-chloro-5-cyanophenyl)-5-hydroxy-N-((1R,2R)-2-hydroxycyclobutyl)-6-(hydroxymethyl)-3-methoxytetrahydro-2H-pyran-2-carboxamide], the IC50 was found to be 253 nM.

For `CO[C@@H]1[C@@H](n2cc(-c3cc(F)c(F)c(Cl)c3)nn2)[C@@H](O)[C@@H](CO)O[C@H]1C(=O)N(c1cc(Br)cc(C#N)c1)[C@H]1CC[C@@H]1O` [Example 2.7.5, (2R,3R,4S,5R,6R)-N-(3-bromo-5-cyanophenyl)-4-(4-(3-chloro-4,5-difluorophenyl)-1H-1,2,3-triazol-1-yl)-5-hydroxy-N-((1S,2S)-2-hydroxycyclobutyl)-6-(hydroxymethyl)-3-methoxytetrahydro-2H-pyran-2-carboxamide], the IC50 stood at 80.3 nM.

For the compound `CO[C@@H]1[C@@H](n2cc(-c3cc(F)c(F)c(Cl)c3)nn2)[C@@H](O)[C@@H](CO)O[C@H]1C(=O)N(c1cc(Br)cc(C#N)c1)[C@@H]1CC[C@H]1O` [Example 2.7.5R, (2R,3R,4S,5R,6R)-N-(3-bromo-5-cyanophenyl)-4-(4-(3-chloro-4,5-difluorophenyl)-1H-1,2,3-triazol-1-yl)-5-hydroxy-N-((1R,2R)-2-hydroxycyclobutyl)-6-(hydroxymethyl)-3-methoxytetrahydro-2H-pyran-2-carboxamide], the IC50 was determined as 232 nM.

For `CO[C@@H]1[C@@H](n2cc(-c3ccc(Cl)c(Cl)c3)nn2)[C@@H](O)[C@@H](CO)O[C@H]1C(=O)N(c1cc(Cl)cc(C#N)c1)[C@H]1CC[C@@H]1O` [Example 2.8.4, (2R,3R,4S,5R,6R)-N-(3-chloro-5-cyanophenyl)-4-(4-(3,4-dichlorophenyl)-1H-1,2,3-triazol-1-yl)-5-hydroxy-N-((1S,2S)-2-hydroxycyclobutyl)-6-(hydroxymethyl)-3-methoxytetrahydro-2H-pyran-2-carboxamide], the IC50 turned out to be 131 nM.

Compound `CO[C@@H]1[C@@H](n2cc(-c3ccc(Cl)c(Cl)c3)nn2)[C@@H](O)[C@@H](CO)O[C@H]1C(=O)N(c1cc(Cl)cc(C#N)c1)[C@@H]1CC[C@H]1O` [Example 2.8.4R, (2R,3R,4S,5R,6R)-N-(3-chloro-5-cyanophenyl)-4-(4-(3,4-dichlorophenyl)-1H-1,2,3-triazol-1-yl)-5-hydroxy-N-((1R,2R)-2-hydroxycyclobutyl)-6-(hydroxymethyl)-3-methoxytetrahydro-2H-pyran-2-carboxamide] came in with an IC50 of 401 nM.

With `CO[C@@H]1[C@@H](n2cc(-c3ccc(Cl)c(Cl)c3)nn2)[C@@H](O)[C@@H](CO)O[C@H]1C(=O)N(c1cc(Br)cc(C#N)c1)[C@H]1CC[C@@H]1O` [Example 2.8.5, (2R,3R,4S,5R,6R)-N-(3-bromo-5-cyanophenyl)-4-(4-(3,4-dichlorophenyl)-1H-1,2,3-triazol-1-yl)-5-hydroxy-N-((1S,2S)-2-hydroxycyclobutyl)-6-(hydroxymethyl)-3-methoxytetrahydro-2H-pyran-2-carboxamide], the IC50 came out at 155 nM.

`CO[C@@H]1[C@@H](n2cc(-c3ccc(Cl)c(Cl)c3)nn2)[C@@H](O)[C@@H](CO)O[C@H]1C(=O)N(c1cc(Br)cc(C#N)c1)[C@@H]1CC[C@H]1O` [Example 2.8.5R, (2R,3R,4S,5R,6R)-N-(3-bromo-5-cyanophenyl)-4-(4-(3,4-dichlorophenyl)-1H-1,2,3-triazol-1-yl)-5-hydroxy-N-((1R,2R)-2-hydroxycyclobutyl)-6-(hydroxymethyl)-3-methoxytetrahydro-2H-pyran-2-carboxamide] registered an IC50 of 446 nM.

The compound `CO[C@@H]1[C@@H](n2cc(-c3cc(F)cc(Cl)c3)nn2)[C@@H](O)[C@@H](CO)O[C@H]1C(=O)N(c1cc(Br)cc(C#N)c1)[C@H]1CC[C@@H]1O` [Example 2.9.5, (2R,3R,4S,5R,6R)-N-(3-bromo-5-cyanophenyl)-4-(4-(3-chloro-5-fluorophenyl)-1H-1,2,3-triazol-1-yl)-5-hydroxy-N-((1S,2S)-2-hydroxycyclobutyl)-6-(hydroxymethyl)-3-methoxytetrahydro-2H-pyran-2-carboxamide] displayed an IC50 of 123 nM.

As for `CO[C@@H]1[C@@H](n2cc(-c3cc(F)cc(Cl)c3)nn2)[C@@H](O)[C@@H](CO)O[C@H]1C(=O)N(c1cc(Br)cc(C#N)c1)[C@@H]1CC[C@H]1O` [Example 2.9.5R, (2R,3R,4S,5R,6R)-N-(3-bromo-5-cyanophenyl)-4-(4-(3-chloro-5-fluorophenyl)-1H-1,2,3-triazol-1-yl)-5-hydroxy-N-((1R,2R)-2-hydroxycyclobutyl)-6-(hydroxymethyl)-3-methoxytetrahydro-2H-pyran-2-carboxamide], the IC50 was determined as 473 nM.

As to `CO[C@@H]1[C@@H](n2cc(-c3cc(F)cc(Br)c3)nn2)[C@@H](O)[C@@H](CO)O[C@H]1C(=O)N(c1cc(C)cc(C#N)c1)[C@H]1CC[C@@H]1O` [Example 2.10.8, (2R,3R,4S,5R,6R)-4-(4-(3-bromo-5-fluorophenyl)-1H-1,2,3-triazol-1-yl)-N-(3-cyano-5-methylphenyl)-5-hydroxy-N-((1S,2S)-2-hydroxycyclobutyl)-6-(hydroxymethyl)-3-methoxytetrahydro-2H-pyran-2-carboxamide], the IC50 is 232 nM.
